# Earlier results as cited in patent publication US20040156920A1, “Extracts from plant and non-plant biomass and uses thereof” (priority 2000, published 2004).
# What was measured:
# [1] = test system: male albino rats; details: 20 mg/kg body weight daily subcutaneous
# [2] = test system: human blood PMN cells; set-up: phagocytosis at higher concentration: dose or concentration left out as unconfirmed
# [3] = test system: classical complement pathway
molecule,measurement,setting,value
CCCCCCCCCCCC1=C(O)C(=O)C=C(O)C1=O [embelin],sperm count and other fertility parameters,[1],inhibition of sperm count and other fertility parameters
Wheat germ agglutinin,phagocytosis at higher concentration,[2],strongly inhibited phagocytosis
same,promotion of phagocytosis compared to Zymosan-A control,[2]; 0.5-1.0 mg/ml,1.8 times
CC1(C)[C@@H](O)CC[C@]2(C)[C@H]3C(=O)C=C4[C@H]5C[C@@](C)(C(=O)O)CC[C@]5(C)CC[C@@]4(C)[C@]3(C)CC[C@@H]12 [Beta-glycyrrhetinic acid],IC50,[3],35 µM
